{
  "source": "patent US11191293B2",
  "about": "“Nutritional composition and infant formula for promoting myelination of the brain” (NESTEC S.A., priority 2015, dated 2021)",
  "key": {"[1]": {"test_system": "brain myelination (myelin water fraction)", "assay": "Cross-sectional correlation of infant formula nutrient content with brain myelination (mcDESPOT MRI myelin water fraction)", "assay_type": "in vivo, human", "settings": "formula-fed children up to 5 years of age; brain regions named per nutrient", "description": "MRI (Magnetic Resonance Imaging): MRI brain scans of infants and children between 0 and 5 years were acquired using a white matter imaging technique. This technique provides a quantitative measure, the Myelin Water Fraction (MWF), which is a surrogate marker of myelin content in the brain. When mapped as a function of time across early childhood, myelination trajectories can be generated.\nInfant formula composition: six infant formulas fed to infants participating in a study were analyzed for their composition/level of myelin-relevant nutrients.\nInfants included in this study were drawn from a larger longitudinal study of normal brain and behavioral development: the Brown University Assessment of Myelination and Behavior Across Maturation (BAMBAM). To focus on neurotypical development, children with known potential risk factors for learning, neurologic, or psychiatric disorders were specifically excluded during recruitment and enrollment. Thus, children with in utero alcohol or illicit substance exposure, premature (<37 weeks gestation) or multiple birth, fetal ultrasound abnormalities, complicated pregnancy (e.g., preeclampsia), APGAR scores <8, NICU admission, neurological disorder (e.g., head injury, epilepsy), psychiatric or developmental disorders in the infant, parents or siblings (including maternal depression requiring medication) were excluded. Ongoing screenings, such as the MCAT for autism, or CBCL for behavioral problems, were further used to remove enrolled children with clinically concerning behaviors or overt medical conditions (such as autism spectrum disorders).\nA combination of retrospective and prospective data were acquired from parents via detailed medical histories and parental interview on the type of infant formula used, percentage of breastfeeding to formula feeding, and length of exclusive breastfeeding. This information was updated at each study visit, which occurred approximately every 6 months for children under 2 years, and yearly for older children. Using this information, children were categorized into one of 2 groups: #1. Exclusively formula-fed; and #2. Exclusively breastfed for at least 90 days (3 months). Children who were fed a combination of breastmilk and formula within 3 months were excluded from our analysis. Infants within the exclusively formula-fed group were further sub-divided based on parental reports of the main infant formula used throughout the first 3 months. Main formula was defined as that given 90% of the time or more (in the case were parents used an alternate brand during vacation, for example).\nUsing these criteria, 94 exclusively formula-fed infants and young children were selected into group #1. These included 13 children who received formula #2; 28 who received formula #5; 8 who received formula #3; 39 who received formula #4; 5 who received formula #1 and 1 who received formula #6. A sample of 52 exclusively breast-fed infants were also selected and matched to the over formula-fed group with regards to mean age, gestation duration, birth weight, male:female ratio, ethnicity ratio, maternal education, family size, and number of languages spoken in the home (in addition to English).\nEach infant was scanned using the mcDESPOT (multicomponent Driven Equilibrium Single Pulse Observation of T1 and T2) white matter imaging technique Deoni et al. (Magn. Reson. Med. 2008, 60:1372-1387), which provides a quantitative measure of the myelin water fraction (MWF)—a measure of myelin content—at each point throughout the brain. All infants were scanned during natural (i.e. non-sedated) sleep using acoustically-muffled mcDESPOT imaging protocols. Total imaging times ranged from 19 minutes for the youngest toddlers to 24 minutes for the older 4 year-old children."}, "[2]": {"test_system": "neural progenitor cell (NPCs)", "assay": "Differentiation assay: quantification of neuronal and glial marker expression in monolayer NPC culture", "assay_type": "cell-based, mouse", "design": "key: marker integrated density normalized to DAPI integrated density", "settings": "9 d culture; for astrocyte cell density: GFAP normalized to DAPI", "description": "Generation of neural progenitor cell (NPCs) libraries: dissociation of E14 mouse neocortex E14 pup brains were harvested and placed in ice cold DPBS(1X)+10% Pen/Strep, then they were dissected using a dissecting microscope. From each pup, one brain hemisphere was placed in 2 ml of Neurobasal media/10% P/S/10X Hepes and another brain hemisphere was placed in another tube. The tissue from each tube was aseptically and manually dissociate into single cells, neurobasal complete medium was added and centrifuged at […] for 5 min. The tissue was then re-suspended in neurobasal complete media with GF and placed in a corning suspension culture dish 100 mm×20 mm (#430591). […] 24 well glass bottom plates (Mat Tek […]-1.0-13-F Case, glass bottom 24 well plates) were coated with poly-L-ornithin (Sigma P4957) and Fibronection (Sigma F1141) before use in the assay below. Cells were plated (10,000 cells per well) in Complete media with GF for 24 hours (500 ul per well). […] After 24 hours, it was ensured that cells were attached to the plate, then the medium was carefully removed. […] Note: medium contains no GF. […] The cells were culture for 9 d in media plus 2% Nu Serum, the medium was changed every 2 nd day. For fixation and subsequent immunohistochemical analysis the medium was removed, the cells were rinsed once with 1X PBS for 5 min, and fixed with 4% PFA in 1X PBS for 15 min at 4° C. The cells were then washed twice with 1X PBS for 5 min, left in 1X PBS, wrapped in foil and left overnight at 4C, or they were immediately primary antibody staining was carried out. PBS was removed and enough AB staining solution (1% Goat serum, 1xPBS, and 0.1% triton X) was added to cover the bottom, the block was kept at room temp for 1 hour. Primary antibody dilutions were made in appropriate amount of AB staining solution, 250 ul per well (the antibodies were only kept out on ice for a short time, mouse anti-MAP2 or TUJ1 1:500 (neuron marker), rabbit anti-GFAP(glial marker) 1:1000, chicken anti-Nestin CFP (EGFP antibody (progenitor cell marker)) 1:1000. AB staining solution was removed and a solution of primary antibodies was added to each chamber. The cells were wrapped in foil and kept overnight 4'C. The cells were then washed with 400 ul of AB staining solution for 5 min once to remove primary antibodies. Secondary antibody solutions were made (enough for 250 ul of each chamber) (Goat anti-mouse alexa 488 1:2000, anti-rabbit Cy3 (1:500), anti-chicken alexa 647 1:500, and 1:5000 Dapi). The cells were incubated at room temp for 1 hour in the dark and washed 2 time in AB staining solution for five mins. They were then kept at 4° C. or Imaged using a GE Cytell imager or LSM 710, Zeiss confocal microscope and analyze with ImageJ software(National Institutes of Health). Each marker expression was measured on collected images (integrated density measure in ImageJ) and normalized to DAPI fluorescence, marking all nuclei (integrated density measure). Octanoic Acid were labeled with neuronal beta-tubulin III (TuJ1), subsequent compounds were labeled with Microtubule-associated protein 2 (MAP2)."}},
  "data": [
    {"compound": "CCCCC/C=C\\C/C=C\\C/C=C\\C/C=C\\CCCC(=O)O", "note": "[AA, arachidonic acid]", "values": [
      {"measurement": "association of nutrient content of infant formula with myelination (myelin water fraction) over time in the brain", "setting": "[1]", "value": "an association with myelination (myelin water fraction) was observed"}
    ]},
    {"compound": "[Mg+2]", "note": "[magnesium]", "values": [
      {"measurement": "association of nutrient content of infant formula with myelination (myelin water fraction) over time in the brain", "setting": "[1]", "value": "an association with myelination (myelin water fraction) was observed"}
    ]},
    {"compound": "phosphatidylcholine", "values": [
      {"measurement": "association of nutrient content of infant formula with myelination (myelin water fraction) over time in the brain", "setting": "[1]", "value": "an association with myelination (myelin water fraction) was observed"}
    ]},
    {"compound": "CCCCCCCC/C=C\\CCCCCCCCCCCCCC(=O)O", "note": "[Nervonic acid, Nervonic Acid]", "values": [
      {"measurement": "astrocyte cell density", "setting": "[2]; Nervonic acid high dose (Dose 3, 1 μm)", "value": 0.7028},
      {"measurement": "Neuronal Cell density", "setting": "[2]; Nervonic acid high dose (Dose 3, 1 μm), MAP2 normalized to DAPI", "value": 0.5394},
      {"measurement": "astrocyte cell density", "setting": "[2]; Nervonic acid low dose (Dose 1, 10 nM)", "value": 0.6218},
      {"measurement": "Neuronal Cell density", "setting": "[2]; Nervonic acid low dose (Dose 1, 10 nM), MAP2 normalized to DAPI", "value": 0.4676},
      {"measurement": "astrocyte cell density", "setting": "[2]; Nervonic acid med dose (Dose 2, 100 nM)", "value": 0.7215},
      {"measurement": "Neuronal Cell density", "setting": "[2]; Nervonic acid med dose (Dose 2, 100 nM), MAP2 normalized to DAPI", "value": 0.5656}
    ]},
    {"compound": "vitamin B12", "values": [
      {"measurement": "association of nutrient content of infant formula with myelination (myelin water fraction) over time in the brain", "setting": "[1]", "value": "an association with myelination (myelin water fraction) was observed"}
    ]},
    {"compound": "CCCCCCCCCCCCCCCCCC(=O)O", "note": "[Stearic acid, Stearic Acid]", "values": [
      {"measurement": "astrocyte cell density", "setting": "[2]; Stearic acid high dose (Dose 3, 10 μM)", "value": 0.85},
      {"measurement": "Neuronal Cell density", "setting": "[2]; Stearic acid high dose (Dose 3, 10 μM), MAP2 normalized to DAPI", "value": 0.64},
      {"measurement": "astrocyte cell density", "setting": "[2]; Stearic acid low dose (Dose 1, 100 nM)", "value": 0.68},
      {"measurement": "Neuronal Cell density", "setting": "[2]; Stearic acid low dose (Dose 1, 100 nM), MAP2 normalized to DAPI", "value": 0.54},
      {"measurement": "astrocyte cell density", "setting": "[2]; Stearic acid med dose (Dose 2, 1 μm)", "value": 0.81},
      {"measurement": "Neuronal Cell density", "setting": "[2]; Stearic acid med dose (Dose 2, 1 μm), MAP2 normalized to DAPI", "value": 0.66}
    ]},
    {"compound": "iron", "values": [
      {"measurement": "association of nutrient content of infant formula with myelination (myelin water fraction) over time in the brain", "setting": "[1]", "value": "an association with myelination (myelin water fraction) was observed"}
    ]},
    {"compound": "CCCCCCCC(=O)O", "note": "[Octanoic acid, Octanoic Acid]", "values": [
      {"measurement": "astrocyte cell density", "setting": "[2]; Octanoic acid high dose (Dose 3, 250 μM)", "value": 7.9},
      {"measurement": "Neuronal Cell density", "setting": "[2]; Octanoic acid high dose (Dose 3, 250 μM), TuJ1 normalized to DAPI", "value": 1.7},
      {"measurement": "astrocyte cell density", "setting": "[2]; Octanoic acid low dose (Dose 1, 10 μM)", "value": 3.7},
      {"measurement": "Neuronal Cell density", "setting": "[2]; Octanoic acid low dose (Dose 1, 10 μM), TuJ1 normalized to DAPI", "value": 1.2},
      {"measurement": "astrocyte cell density", "setting": "[2]; Octanoic acid med dose (Dose 2, 50 μM)", "value": 6.1},
      {"measurement": "Neuronal Cell density", "setting": "[2]; Octanoic acid med dose (Dose 2, 50 μM), TuJ1 normalized to DAPI", "value": 1.8}
    ]},
    {"compound": "[P]", "note": "[phosphorus]", "values": [
      {"measurement": "association of nutrient content of infant formula with myelination (myelin water fraction) over time in the brain", "setting": "[1]", "value": "an association with myelination (myelin water fraction) was observed"}
    ]},
    {"compound": "phosphatidylinositol", "values": [
      {"measurement": "association of nutrient content of infant formula with myelination (myelin water fraction) over time in the brain", "setting": "[1]", "value": "an association with myelination (myelin water fraction) was observed"}
    ]},
    {"compound": "[Ca+2]", "note": "[calcium]", "values": [
      {"measurement": "association of nutrient content of infant formula with myelination (myelin water fraction) over time in the brain", "setting": "[1]", "value": "an association with myelination (myelin water fraction) was observed"}
    ]},
    {"compound": "[Zn]", "note": "[zinc]", "values": [
      {"measurement": "association of nutrient content of infant formula with myelination (myelin water fraction) over time in the brain", "setting": "[1]", "value": "an association with myelination (myelin water fraction) was observed"}
    ]}
  ]
}
